Tests used:
[1] = Water-octanol partition coefficient (Log P), shake-flask method and GFAAS; conditions: octanol/PBS
human IDO in SKOV3 cells = test: Immunoblotting and qRT-PCR of IDO expression in SKOV3 cells; format: cell-based; conditions: immunoblotting and qRT-PCR
Procedure: Total RNA was isolated with the Qiagen RNAeasy RNA isolation kit (Hilden, Germany) and cDNA was synthesized with the Applied Biosystems reverse-transcription-kit (Foster City, Calif., USA). qRT-PCR was performed in a Light cycler 480 II thermo cycler with SYBR Green PCR Mastermix (Roche). All primers were separated by at least one intron on the genomic DNA to exclude its amplification. PCR reactions were checked by including no-RT controls, by omission of templates, and by melting curves. Standard curves were generated for each gene. Relative quantification of gene expression was determined by comparison of threshold values. All samples were analyzed in duplicate at two different dilutions. All results were normalized to GAPDH.
Cells were washed with PBS, scraped into SDS-PAGE loading buffer (64 mM Tris-HCl (pH 6.8)/9.6% glycerol/2% SDS/5% β-mercaptoethanol/0.01% Bromophenol Blue), and incubated at 95° C. for 10 min. […] Membranes were blocked in 5% (w/v) bovine serum albumin in PBST (PBS/0.1% Tween 20) and incubated with the appropriate primary antibodies (Cell Signalling Technology and Santa Cruz). After incubation with horseradish peroxidase-conjugated secondary antibodies (Cell Signalling Technology), 1:1000, immuno complexes were detected with the ECL detection reagent (BioRad) and analyzed using UVP biospectrum imaging system fitted with a chemiluminescence filter.

[2] = In vivo blood stability in mice
Procedure: The hydrophobic complex 2 was extracted with octanol, diluted, and the Pt concentration was determined by GFAAS.
The octanol extracts were diluted with methanol and analysed by GFAAS.

T-cells = test: Mixed leukocyte reaction (T-cell proliferation), PBMC/SKOV3 coculture; format: cell-based, human; conditions: SKOV3/MLR coculture, 2 10 μM, 6 days, CFSE flow cytometry
Procedure: To target a key component of the immunosuppression promoting IDO-AHR-IL6 loop, the immunomodulatory phenotype of 2 was investigated. A mixed leukocyte reaction (MLR) was carried out. In this experiment, suspended 2×10^5 peripheral blood mononuclear cells (PBMCs) stimulated with phytohemagglutinin (PHA-P), and 2×10^5 cells of PBMCs from unrelated healthy donors as responders stained with carboxyfluorescein succinimidyl ester (CFSE), a cell permeable fluorescent dye that binds amine residues (mostly lysines) covalently, through its succinimidyl ester group were cocultured with adherent SKOV-3 (2000 cells). After 6 days of culture, PBMCs were harvested by centrifugation of medium, stained with APC-anti CD3 and T-cell proliferation was assessed by flow cytometry. T-cells express CD3, a cell surface multimeric protein complex involved in T-cell development and activation.
SKOV3 cells (2×10^3) were seeded in 6-well plates. […] The T-cell population of PBMCs was measured by FACS Calibur-HTS flow cytometer (BD Biosciences) after staining with APC-anti CD3 antibody. PHA-P stimulated PBMCs (2×10^5) and carboxyfluorescein succinimidyl ester (CFSE) stained PBMCs (2×10^5) from unrelated donors were added in co-cultures of SKOV3 tumor cells (treated and untreated) and incubated for six days at 37° C., the and CFSE signal analyzed by flow cytometry on days 1 and 6.

Solubility in PBS = format: physicochemical
[3] = tested on: A2780/CP70 human ovarian cancer cells; test: Cytotoxicity MTT assay, A2780/CP70; format: cell-based; conditions: cisplatin-sensitive and resistant ovarian cancer cell lines
Source text: Ovarian carcinoma cells, NIH:OVCAR3, A2780, A2780/CP70, and SKOV3 were purchased from the American Type Culture Collection (ATCC, Rockville Md.). Peripheral blood mononuclear cells (PBMCs) of two different donors were obtained from Zen Bio Inc. (Research Triangle, NC). Cancer cell lines were maintained in Roswell Park Memorial Institute (RPMI) medium (glutamine-free supplemented with 10% fetal bovine serum, Atlanta Biologics, Atlanta Ga.) and 1% penicillin/streptomycin. PBMCs were thawed in specialized medium (10% […], 40% RPMI and 50% FBS) and subsequently cultured in RPMI containing 20% FBS. For T-cell proliferation experiments, PBMCs were stimulated by the addition of phytohemagglutinin (PHA-P). All cells were grown at 310 K in a humidified atmosphere containing 5% CO2. D-1-methyltryptophan, L-tryptophan and L-kynurenine were purchased from Sigma Aldrich.
The colorimetric MTT assay was used to determine the toxicity of 1, 2, and cisplatin. Cells (2×10^3) were seeded in each well of a 96-well plate. […] Cisplatin was prepared as a 5 mM solution in PBS and diluted using media. 1, 2 and C16—Pt-Suc-NHC2H4OH were prepared as 10 mM solution in DMSO and diluted using media. The final volume amount of DMSO in each well was 0.5%, and which was present in the untreated control as well. Cells co-incubated with cisplatin and (D)-1-MT were first pre-treated with 1 mM (D)-1-MT. […] The RPMI/MTT, mixture was aspirated and 100 μL of DMSO was added to dissolve the resulting purple formazan crystals. The absorbance of the solution wells was read at 570 and 650 nm. Absorbance values were normalized to DMSO-containing control wells and plotted as concentration of test compound versus % cell viability. IC50 values were interpolated from the resulting dose dependent curves. The reported IC50 values are the average of at least three independent experiments, each of which consisted of six replicates per concentration level.

SKOV3 cells [4] = test: Immunoblotting of DNA damage response markers; format: cell-based, human; conditions: up to 48 h and 72 h
Procedure: The ability of 2 to induce DNA damage was investigated by monitoring changes in expression of markers of the damage response pathway by immunoblotting analyses.
Cells were washed with PBS, scraped into SDS-PAGE loading buffer (64 mM Tris-HCl (pH 6.8)/9.6% glycerol/2% SDS/5% β-mercaptoethanol/0.01% Bromophenol Blue), and incubated at 95° C. for 10 min. Whole cell lysates were resolved by 4-20% sodium dodecylsulphate polyacylamide gel electrophoresis (SDS-PAGE; 200 V for 25 min) followed by electro transfer to polyvinylidene difluoride membrane, PVDF (350 mA for 1 h). Membranes were blocked in 5% (w/v) bovine serum albumin in PBST (PBS/0.1% Tween 20) and incubated with the appropriate primary antibodies (Cell Signalling Technology and Santa Cruz). After incubation with horseradish peroxidase-conjugated secondary antibodies (Cell Signalling Technology), 1:1000, immuno complexes were detected with the ECL detection reagent (BioRad) and analyzed using UVP biospectrum imaging system fitted with a chemiluminescence filter.

Eμ-Myc lymphoma cells = test: RNAi signature (GFP competition) assay; conditions: LD80-90 dose, 72 h
SKOV3 cells [5] = test: Cell cycle analysis by flow cytometry (DNA content)

For `CCCCCCCCCCCCCCCCNC(=O)[O][Pt]([NH2])([NH2])([Cl])([Cl])[O]C(=O)CCC(=O)NCCOC(=O)[C@H](N)Cc1cn(C)c2ccccc12` (mixture of isomers) [Compound 2, cis,cis,trans-[Pt(NH3)2Cl2(O2CC2H4OCNHC2H4O2C-D-1MT)(O2CNHC16H33)]], the logP at 3 h [1] was 1.35 ± 0.26, the “IDO protein expression (IDO inhibition)” value (human IDO in SKOV3 cells) was “effectively block IDO protein expression” and the “Pt concentration in blood (octanol extract)” value ([2]; 24 h after i.v. NP formulation of 2, 8 mg/kg) was “non-detectable levels”. The half-life ([2]; female, Balb/c, mouse, whole blood, iv, 8 mg/kg) was roughly 1 h, the “alloreactive T-cell proliferation” value (T-cells) was “enhancement of alloreactive T-cell proliferation” and the “solubility in PBS” value (Solubility in PBS) was “low solubility”. For the same compound, the cross-resistance with cisplatin [3] was “no cross-resistance with cisplatin”, the “expression of DNA damage response markers” value (SKOV3 cells [4]) was “marked time-dependent increase in expression of phosphorylated ATR, ATM, BRCA1, Chk1, Chk2, H2AX, and p53” and the RNAi signature (Eμ-Myc lymphoma cells) was “strong p53 and Chk2 shRNA enrichment”. For the same compound, the “cell cycle arrest phase” value (SKOV3 cells [5]) was “cell cycle block at G1 phase”.

— US20170129911A1, “COMPLEXES COMPRISING A PLATINUM COMPOUND AND AN IMMUNE CHECKPOINT INHIBITOR AND RELATED METHODS” (Massachusetts Institute of Technology, priority 2015, published 2017)
